Laboratory results taken from ChEMBL document CHEMBL5441442, “ASAP - In vitro cardiotoxicity” (2024).

What was measured:
Format in all cases: toxicity, cell-based, Cricetulus griseus, CHO
[1] = biological target: Sodium channel protein type 5 subunit alpha (Homo sapiens, UniProt Q14524); test: (§1) Compounds were solubilised to 10 mM in DMSO and diluted in HBPS to 30 mM. 6-Point concentration-response curves were generated using serial dilutions from the top test concentration. Electrophysiological recordings were made from a Chinese Hamster Ovary cell line stably expressing the full-length ion channel. Single cell ionic currents were measured in whole-cell configuration at room temperature. The internal solution for hNaV1.5 is buffered to pH 7.3, and the external solution is buffered to pH 7.4. The test pulse was applied according to voltage protocol. Compounds were incubated for 2 min to allow stabilization of the parameters. Concentration-response curves were generated by cumulative addition of compound with concentrations low to high. In all cases, steady-state inhibition was achieved before the next concentration of compound was added. To investigate any use-dependence, an 8-pulse voltage protocol is applied at a frequency of 3 Hz. Inhibition is compared at pulse 1 and pulse 8. Any difference in the potency of a compound at P8 versus P1 would be typical of use-dependent block. IC50 values or % inhibition at the top test concentration is obtained. The assay has been performed by Concept Life Sciences Ltd.; conditions: for Inhibition: chinese hamster, cho, pH 7.3, 2 min, 2 min, top test concentration 30 uM
[2] = biological target: NaV1.5 (sodium channel protein type 5 subunit alpha) (Homo sapiens, UniProt Q14524); test: as §1; conditions: chinese hamster, CHO cells stably expressing full-length hNaV1.5, pH 7.3; top test concentration 30 uM
[3] = biological target: Voltage-gated inwardly rectifying potassium channel KCNH2 (Homo sapiens, UniProt Q12809); test: as §1, with “recordings are” for “recordings were”, “currents are” for “currents were”, “for hERG” for “for hNaV1.5”, “added.” for “added. To investigate any use-dependence, an 8-pulse voltage protocol is applied at a frequency of 3 Hz. Inhibition is compared at pulse 1 and pulse 8. Any difference in the potency of a compound at P8 versus P1 would be typical of use-dependent block.”, “% of” for “%”, “at” for “at the”
hERG (KCNH2) = hERG (KCNH2) (Homo sapiens, UniProt Q12809); test: as above; conditions: chinese hamster, CHO cells stably expressing full-length hERG, pH 7.3; top test concentration 30 uM

Chain of NaV1.5 (sodium channel protein type 5 subunit alpha) (Q14524 whole entry): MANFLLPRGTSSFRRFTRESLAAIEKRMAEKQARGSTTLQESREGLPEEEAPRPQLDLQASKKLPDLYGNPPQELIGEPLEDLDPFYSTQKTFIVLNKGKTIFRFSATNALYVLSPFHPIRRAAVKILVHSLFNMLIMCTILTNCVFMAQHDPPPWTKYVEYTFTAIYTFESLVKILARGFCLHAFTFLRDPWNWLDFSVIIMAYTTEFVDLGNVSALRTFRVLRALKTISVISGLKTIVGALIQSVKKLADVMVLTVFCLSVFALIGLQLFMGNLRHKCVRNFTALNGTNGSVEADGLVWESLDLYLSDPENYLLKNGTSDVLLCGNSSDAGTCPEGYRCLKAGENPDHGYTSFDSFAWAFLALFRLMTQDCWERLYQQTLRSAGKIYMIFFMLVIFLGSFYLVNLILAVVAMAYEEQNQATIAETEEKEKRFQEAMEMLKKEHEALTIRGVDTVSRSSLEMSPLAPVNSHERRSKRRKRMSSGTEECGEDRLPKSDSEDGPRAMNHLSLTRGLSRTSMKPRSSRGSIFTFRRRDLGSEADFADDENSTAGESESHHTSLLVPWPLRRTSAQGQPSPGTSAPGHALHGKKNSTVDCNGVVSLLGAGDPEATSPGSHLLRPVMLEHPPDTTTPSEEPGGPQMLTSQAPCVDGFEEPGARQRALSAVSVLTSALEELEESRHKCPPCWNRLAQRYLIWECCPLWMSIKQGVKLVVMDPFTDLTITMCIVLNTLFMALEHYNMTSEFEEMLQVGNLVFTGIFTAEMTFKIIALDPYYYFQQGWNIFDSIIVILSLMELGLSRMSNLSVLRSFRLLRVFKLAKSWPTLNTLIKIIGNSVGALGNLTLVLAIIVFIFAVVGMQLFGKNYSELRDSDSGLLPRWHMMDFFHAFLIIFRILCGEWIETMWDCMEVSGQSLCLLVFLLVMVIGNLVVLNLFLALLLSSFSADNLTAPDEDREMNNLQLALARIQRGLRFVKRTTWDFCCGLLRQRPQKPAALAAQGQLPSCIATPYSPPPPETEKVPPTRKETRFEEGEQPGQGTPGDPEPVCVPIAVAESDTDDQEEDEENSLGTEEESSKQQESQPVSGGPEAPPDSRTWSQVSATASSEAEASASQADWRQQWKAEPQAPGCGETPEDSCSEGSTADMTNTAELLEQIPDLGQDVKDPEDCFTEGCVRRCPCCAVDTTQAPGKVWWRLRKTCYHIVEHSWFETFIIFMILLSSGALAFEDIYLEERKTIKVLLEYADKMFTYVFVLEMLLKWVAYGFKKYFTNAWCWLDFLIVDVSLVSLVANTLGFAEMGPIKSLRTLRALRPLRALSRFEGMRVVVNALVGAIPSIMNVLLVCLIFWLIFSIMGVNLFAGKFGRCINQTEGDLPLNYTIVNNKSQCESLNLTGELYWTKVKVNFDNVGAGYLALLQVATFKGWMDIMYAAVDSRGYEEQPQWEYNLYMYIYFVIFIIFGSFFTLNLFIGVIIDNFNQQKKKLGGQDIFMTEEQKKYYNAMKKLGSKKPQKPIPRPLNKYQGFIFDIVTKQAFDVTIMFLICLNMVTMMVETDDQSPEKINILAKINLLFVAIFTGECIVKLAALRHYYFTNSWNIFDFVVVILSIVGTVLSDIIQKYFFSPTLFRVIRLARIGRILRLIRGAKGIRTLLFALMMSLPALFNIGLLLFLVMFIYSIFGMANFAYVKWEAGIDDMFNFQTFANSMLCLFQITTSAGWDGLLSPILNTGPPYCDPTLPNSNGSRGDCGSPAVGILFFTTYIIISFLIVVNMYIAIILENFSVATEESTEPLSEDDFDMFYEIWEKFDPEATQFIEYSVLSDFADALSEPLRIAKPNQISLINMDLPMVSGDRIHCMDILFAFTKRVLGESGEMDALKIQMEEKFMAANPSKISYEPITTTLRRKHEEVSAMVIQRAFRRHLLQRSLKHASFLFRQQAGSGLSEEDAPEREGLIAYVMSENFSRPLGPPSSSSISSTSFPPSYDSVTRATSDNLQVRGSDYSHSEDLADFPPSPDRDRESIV
Chain of Sodium channel protein type 5 subunit alpha (Q14524 whole entry): as above

## C[C@H](C(=O)O)[C@@H](NC(=O)c1ncnc2[nH]ccc12)c1ccc(Br)cc1
[1]
  IC50: > 30 µM
  Inhibition: 16%
[2]
  inhibition at 2 min: 18%
[3]
  IC50: > 30 µM
hERG (KCNH2)
  inhibition at 2 min: 28%

## CNCc1cc(-c2cc3c(N[C@@H](c4ccc5c(c4)S(=O)(=O)CCC5)C(C)C)ncnc3[nH]2)co1
[1]
  IC50: > 30 µM
  Inhibition: 16%
[2]
  inhibition at 2 min: 10%
[3]
  IC50: > 30 µM
hERG (KCNH2)
  inhibition at 2 min: 26%

## Cn1ncc(-c2cc3c(N[C@@H](c4ccc5c(n4)OCCO5)C(C)(C)C)ncnc3[nH]2)c1C#N
[1]
  IC50: > 30 µM
  Inhibition: 21%
[2]
  inhibition at 2 min: 17%
[3]
  IC50: 19.5 µM

## CC(C)[C@H](Nc1ncnc2[nH]ccc12)c1ccc2c(c1)S(=O)(=O)CCC2
[1]
  IC50: > 30 µM
  Inhibition: 29%
[2]
  inhibition at 2 min: 19%
[3]
  IC50: > 30 µM
hERG (KCNH2)
  inhibition at 2 min: 39%

## COc1ccc([C@H](Cc2nnn[nH]2)NC(=O)c2ncnc3[nH]ccc23)cc1
[1]
  IC50: > 30 µM
  Inhibition: 8%
[2]
  inhibition at 2 min: 9%
[3]
  IC50: > 30 µM
hERG (KCNH2)
  inhibition at 2 min: 27%

## CNC(=O)Cn1cc(-c2cc3c(N[C@@H](c4ccc5c(c4)S(=O)(=O)CCC5)C(C)C)ncnc3[nH]2)cn1
[1]
  IC50: > 30 µM
  Inhibition: 26%
[2]
  inhibition at 2 min: 15%
[3]
  IC50: > 30 µM
hERG (KCNH2)
  inhibition at 2 min: 23%

## CC(C)[C@@H](Nc1ncnc2[nH]c(-c3cnn(C)c3C#N)cc12)c1ccc2c(n1)OCCO2
[1]
  IC50: > 30 µM
  Inhibition: 25%
[2]
  inhibition at 2 min: 27%
[3]
  IC50: 10.1 µM

## CC(C)[C@H](Nc1ncnc2[nH]c(-c3cnn(C)c3C#N)cc12)c1ccc2c(n1)OCCO2
[1]
  IC50: > 30 µM
  Inhibition: 35%
[2]
  inhibition at 2 min: 33%
[3]
  IC50: 11 µM

## CC(C)[C@@H](Nc1ncnc2[nH]c(C(=O)N[C@@H]3CCN(C)C3)cc12)c1ccc2c(c1)S(=O)(=O)CCC2
[1]
  IC50: > 30 µM
[2]
  inhibition at 2 min: 11%
[3]
  IC50: > 30 µM
[3]; chinese hamster, cho, pH 7.3, 2 min, 2 min, top test concentration 30 uM
  Inhibition: 18%
